Columns and labels:
HIV protease = biological target: T1, HIV protease (Human immunodeficiency virus type 1 group M subtype B, UniProt P04585); experiment: HIV protease enzyme assay (fluorescence, substrate 2-Ile-Nle-Phe(p-NO2)-Gln-ArgNH2); format: biochemical; conditions: 12.3 nanomolar enzyme, pH 6.4
T1 construct: HIV protease is diluted in the assay buffer to a final enzyme concentration of 12.3 nanomolar, based on a molecular weight of 10,780
Experimental: The compounds of the present invention are effective HIV protease inhibitors. Utilizing an enzyme assay as described below, the compounds set forth in the examples herein disclosed inhibited the HIV enzyme. […] The enzyme method is described below. The substrate is 2-Ile-Nle-Phe(p-NO2)-Gln-ArgNH2. The positive control is MVT-101 (Miller, M. et al, Science, 246, 1149 (1989)] The assay conditions are as follows:
20 mM sodium phosphate, pH 6.4
The above described substrate is dissolved in DMSO, then diluted 10 fold in assay buffer. Final substrate concentration in the assay is 80 μM. HIV protease is diluted in the assay buffer to a final enzyme concentration of 12.3 nanomolar, based on a molecular weight of 10,780.
The final concentration of DMSO is 14% and the final concentration of glycerol is 18%. The test compound is dissolved in DMSO and diluted in DMSO to 10× the test concentration; 10 μl of the enzyme preparation is added, the materials mixed and then the mixture is incubated at ambient temperature for 15 minutes. The enzyme reaction is initiated by the addition of 40 μl of substrate. The increase in fluorescence is monitored at 4 time points (0, 8, 16 and 24 minutes) at ambient temperature. Each assay is carried out in duplicate wells.

HIV-1 = experiment: CEM cell assay: HIV inhibition assay of acutely infected cells (tetrazolium based colorimetric, MTT); conditions: Human immunodeficiency virus 1, CCRF-CEM, 168 h; Table 21; CEM cells acutely infected with HIV-1, 7 days, MTT readout
Experimental: The effectiveness of various compounds were determined in the above-described enzyme assay and in a CEM cell assay. The HIV inhibition assay method of acutely infected cells is an automated tetrazolium based colorimetric assay essentially that reported by Pauwles et al, J. Virol. Methods, 20, 309-321 (1988). Assays were performed in 96-well tissue culture plates. CEM cells, a CD4+cell line, were grown in RPMI-1640 medium (Gibco) supplemented with a 10% fetal calf serum and were then treated with polybrene (2 μg/ml). An 80 μl volume of medium containing 1×10^4 cells was dispensed into each well of the tissue culture plate. To each well was added a 100 μl volume of test compound dissolved in tissue culture medium (or medium without test compound as a control) to achieve the desired final concentration and the cells were incubated at 37° C. for 1 hour. A frozen culture of HIV-1 was diluted in culture medium to a concentration of 5×10^4 TCID50 per ml (TCID50=the dose of virus that infects 50% of cells in tissue culture), and a 20 μL volume of the virus sample (containing 1000 TCID50 of virus) was added to wells containing test compound and to wells containing only medium (infected control cells). Several wells received culture medium without virus (uninfected control cells). Likewise, the intrinsic toxicity of the test compound was determined by adding medium without virus to several wells containing test compound. In summary, the tissue culture plates contained the following experiments:
In experiments 2 and 4 the final concentrations of test compounds were 1, 10, 100 and 500 μg/ml. Either azidothymidine (AZT) or dideoxyinosine (ddI) was included as a positive drug control. […] DMSO was added to all control wells at an appropriate concentration.
Following the addition of virus, cells were incubated at 37° C. in a humidified, 5% CO2 atmosphere for 7 days. Test compounds could be added on days 0, 2 and 5 if desired. On day 7, post-infection, the cells in each well were resuspended and a 100 μl sample of each cell suspension was removed for assay. A 20 μL volume of a 5 mg/ml solution of 3-(4,5-dimethylthiazol-2-yl)-2,5-diphenyltetrazolium bromide (MTT) was added to each […] cell suspension, and the cells were incubated for 4 hours at […] in a 5% CO2 environment. […] To each sample was added 100 μl of 10% sodium dodecylsulfate in 0.01 N HCl to lyse the cells, and samples were incubated overnight. The absorbance at 590 nm was determined for each sample using a Molecular Devices microplate reader. Absorbance values for each set of wells is compared to assess viral control infection, uninfected control cell response as well as test compound by cytotoxicity and antiviral efficacy.

SMILES	IC50 (HIV protease; Table 21, 80 μM substrate) [nM]	EC50 (HIV-1) [nM]	IC50 (HIV protease; Table 20, 80 μM substrate) [nM]
COc1ccc(S(=O)(=O)N(CC(C)C)C[C@@H](O)[C@H](Cc2ccccc2)NC(=O)[C@@H](NC(=O)CN2CCCC2)C(C)C)cc1 [Entry 13]	3	18	
CC(C)CN(C[C@@H](O)[C@H](Cc1ccccc1)NC(=O)[C@@H](NC(=O)CN1CCCC1)C(C)(C)C)S(=O)(=O)c1ccc2c(c1)CCO2 [Entry 11]	4	21	
CC(C)CN(C[C@@H](O)[C@H](Cc1ccccc1)NC(=O)[C@@H](NC(=O)CN1CCCC1)C(C)(C)C)S(=O)(=O)c1ccc2ncsc2c1 [Entry 8]	3	16	
CCC(C)[C@H](NC(=O)CN1CCCC1)C(=O)N[C@@H](Cc1ccccc1)[C@H](O)CN(CC(C)C)S(=O)(=O)c1ccccc1 (stereo partly shown) [Entry 1]			4
CCC(C)[C@H](NC(=O)CN1CCCC1)C(=O)N[C@@H](Cc1ccccc1)[C@H](O)CN(CC(C)C)S(=O)(=O)c1ccc2c(c1)CCO2 (stereo partly shown) [Entry 2]			2
CC(C)CN(C[C@@H](O)[C@H](Cc1ccccc1)NC(=O)[C@@H](NC(=O)CN1CCCC1)C(C)C)S(=O)(=O)c1ccc2c(c1)OCO2 [Entry 6]	3	6	
CC(C)CN(C[C@@H](O)[C@H](Cc1ccccc1)NC(=O)[C@@H](NC(=O)CN1CCCC1)C(C)(C)C)S(=O)(=O)c1ccccc1 [Entry 4]	4	12	
CC(C)CN(C[C@@H](O)[C@H](Cc1ccccc1)NC(=O)[C@@H](NC(=O)CN1CCCC1)C(C)(C)C)S(=O)(=O)c1ccc2c(c1)OCO2 [Entry 1]	3	7	
CC(C)CN(C[C@@H](O)[C@H](Cc1ccccc1)NC(=O)[C@H](CS(C)(=O)=O)NC(=O)CN1CCCC1)S(=O)(=O)c1ccc2c(c1)OCO2 [Entry 3]	8	120	
CCC(C)[C@H](NC(=O)CN1CCCC1)C(=O)N[C@@H](Cc1ccccc1)[C@H](O)CN(CC(C)C)S(=O)(=O)c1ccc2c(c1)OCO2 (stereo partly shown) [Entry 2]	3	12	
CCC(C)[C@H](NC(=O)CN1CCCC1)C(=O)N[C@@H](Cc1ccccc1)[C@H](O)CN(CC(C)C)S(=O)(=O)c1ccc(OC)cc1 (stereo partly shown) [Entry 9]	3	16	
CC(C)CN(C[C@@H](O)[C@H](Cc1ccccc1)NC(=O)[C@@H](NC(=O)CN1CCCC1)C(C)(C)S(C)(=O)=O)S(=O)(=O)c1ccc2c(c1)OCO2 [Entry 10]	4	39	
C#CC[C@H](NC(=O)CN1CCCC1)C(=O)N[C@@H](Cc1ccccc1)[C@H](O)CN(CC(C)C)S(=O)(=O)c1ccc2c(c1)OCO2 [Entry 12]	2	11	
COC(=O)Nc1nc2cc(S(=O)(=O)N(CC(C)C)C[C@@H](O)[C@H](Cc3ccccc3)NC(=O)[C@@H](NC(=O)CN3CCCC3)C(C)(C)C)ccc2[nH]1 [Entry 7]	2	29	
COc1ccc(S(=O)(=O)N(CC(C)C)C[C@@H](O)[C@H](Cc2ccccc2)NC(=O)[C@@H](NC(=O)CN2CCCC2)C(C)(C)C)cc1 [Entry 5]	3	5	

— patent US6730669B2, “Amino acid hydroxyethylamino sulfonamide retroviral protease inhibitors” (G. D. Searle & Co., priority 1995, dated 2004)
